Experiments:
[1] = system: CD8+ T cells; assay: IFN-γ production (ELISA) by in vitro primed T cell cultures in response to peptide pulsed onto A221 cells; format: cell-based, human; conditions: HLA-A2+ healthy donors
From the text: (§1) FIG. 21: Strategy for the generation of human cytotoxic T lymphocytes (CTLs) specific for candidate human SPAS-1 peptides: In order to determine whether CD8+ T cells specific for human SPAS-1 peptides are present in the periphery of healthy individuals we used an in vitro priming strategy. Briefly, immature Myeloid Dendritic Cells (mDCs) were generated from culturing monocytes isolated from Peripheral Blood Mononuclear Cells (PBMCs) of a healthy HLA-A2+ donor for 5 days in GM-CSF and IL-4.
Following another in vitro restimulation, T cell cultures were assessed for their capacity to produce IFN-γ in response to the corresponding peptide, pulsed onto the HLA-A2 expressing cell line A221. IFN-γ was assessed by ELISA on the cell supernatants in triplicate wells.
as §1, with “In” for “FIG. 21: Strategy for the generation of human cytotoxic T lymphocytes (CTLs) specific for candidate human SPAS-1 peptides: In”

[2] = system: CD8+ T cells; assay: IFN-γ production (ELISA) by FL-9-primed CD8+ T cells in response to titrated peptide pulsed onto THP-1 cells; format: cell-based, human; conditions: fourteen days after first stimulation
Procedure: FIG. 24. […] A) Monocyte-derived DCs from HLA-A2+ healthy donors were pulsed with HuSPAS-1 peptide 4 (FL-9) and then incubated with autologous PBMC. Following another in vitro restimulation, T cell cultures were then assessed for their capacity to produce IFN-γ in response to titrated doses of peptide 4 (FL-9), pulsed onto the HLA-A2 expressing cell line THP-1. IFN-γ was assessed by ELISA on the cell supernatants in triplicate wells. […] (100,000 CD8+ T cells/well and 50,000 THP-1 cells/well). […] Responsiveness of the FL-9-reactive CD8+ T cell line was assessed by co-culturing 100,000 CD8+ T cells with titrated numbers of infected THP-1 cells.
Monocyte-derived DCs from HLA-A2+ healthy donors were pulsed with HuSPAS-1 peptide 4 (FL-9) and then incubated with autologous PBMC. Following another in vitro restimulation, T cell cultures were then assessed for their capacity to produce IFN-γ in response to titrated doses of peptide 4 (FL-9), pulsed onto the HLA-A2 expressing cell line THP-1. IFN-γ was assessed by ELISA on the cell supernatants in triplicate wells. […] Responsiveness of the FL-9-reactive CD8+ T cell line was assessed by co-culturing 100,000 CD8+ T cells with titrated numbers of infected THP-1 cells.

| Sequence | immunogenicity: IFN-γ production in response to the corresponding peptide [1] | IFN-γ production in response to increasing doses of peptide [2] |
| --- | --- | --- |
| FLTPLRNFL (H. sapiens) [P4] | Immunogenic | specifically produced IFN-γ |
| LLADELITV (H. sapiens) [P1] |  | not |
